Data from patent US11396493B2, “Amorphous pyrrolidine derivative as PPAR agonist and preparation method thereof” (GUANGDONG RAYNOVENT BIOTECH CO., LTD., priority 2017, dated 2022).
Values belong to the compound of their own block, whether it stands above or below them.

Legend:
[1] = tested on: cytokines of PPAR-associated pathways; experiment: Effect on cytokines of PPAR-associated pathways; conditions: no data shown
[2] = Stability tests of the amorphous form in various solvents, XRPD; assay type: physicochemical; conditions: for Appearance: 40° C. 2 days
Protocol: A plurality of samples of the amorphous form of the compound of formula (I) (each about 20 mg) were respectively added to 0.3-0.4 mL of a single or mixed solvent as listed in the table below, and stirred at 40° C. After being stirred for 2 days, if the sample was still in a state of a solution or close to a solution, it was filtered, followed by natural evaporation of solvent; and if the sample was still a suspension, the sample was centrifuged for collecting the precipitates, and the supernate was placed in a fuming cupboard until the solvent was dried off. Then, the precipitates and the solids obtained after solvent evaporation were placed in a vacuum drying oven at 40° C. overnight. The solids in all the samples were collected and detected by XRPD for their states.

[3] = Solid physical stability test at high humidity (25° C./92.5% RH), appearance and XRPD; assay type: physicochemical
Protocol: Samples (each about 100 mg) of the amorphous form of the compound of formula (I) were weighed in duplicates, and placed on the bottom of a glass sample bottle to spread out into a thin layer. The mouth of the glass sample bottle was sealed with aluminum foil which was pierced to form some holes thereon to ensure that the samples could sufficiently contact with the ambient air. The prepared samples were placed under the relative conditions of 25° C./92.5%, and detected for their physical stability on Day 10. Meanwhile, a sample (about 100 mg) of the amorphous form of the compound of formula (I) was separately weighed, placed on the bottom of the glass sample bottle which was sealed with a screw cap, and stored at −20° C. as control. On Day 10, all the samples were taken out and returned to room temperature. The samples were visually observed for their appearance changes, and detected by XRPD for their forms. By comparing the accelerated sample with the control sample, the solid physical stability of the compound of formula (I) was determined.

[4] = Solid stability test under high temperature and high humidity (40° C./75% humidity), HPLC; assay type: physicochemical
Protocol: Samples (each about 100 mg) of the amorphous form of the compound of formula (I) were weighed in duplicates, and placed on the bottom of a glass sample bottle to spread out into a thin layer. The mouth of the glass sample bottle was sealed with aluminum foil which was pierced to form some holes thereon to ensure that the samples could sufficiently contact with the ambient air. The samples were placed in a constant temperature and humidity chamber at 40° C./75% humidity. The samples stored under the above conditions were sampled and tested on Days 10, 30, 60, and 90. The test results were compared with the initial test results of Day 0.

PPAR Alpha = target: T1, PPAR Alpha (Homo sapiens, UniProt Q07869); experiment: PathHunter NHR protein interaction test, agonist mode, PPAR Alpha; assay type: cell-based
T1 sequence (Q07869 1-468): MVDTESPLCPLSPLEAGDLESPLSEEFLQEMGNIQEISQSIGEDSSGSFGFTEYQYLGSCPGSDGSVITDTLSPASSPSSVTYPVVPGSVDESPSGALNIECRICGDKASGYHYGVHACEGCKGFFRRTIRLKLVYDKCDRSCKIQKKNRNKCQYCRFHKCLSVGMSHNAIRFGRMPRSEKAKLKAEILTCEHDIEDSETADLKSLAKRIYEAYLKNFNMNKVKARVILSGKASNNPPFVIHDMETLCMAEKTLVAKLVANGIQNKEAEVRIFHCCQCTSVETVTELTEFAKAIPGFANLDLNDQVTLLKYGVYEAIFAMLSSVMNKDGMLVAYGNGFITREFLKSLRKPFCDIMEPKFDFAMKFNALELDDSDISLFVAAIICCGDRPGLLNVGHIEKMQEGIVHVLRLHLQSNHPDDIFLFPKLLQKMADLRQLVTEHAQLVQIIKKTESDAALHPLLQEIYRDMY
Excerpt: (§1) Principles of in Vitro Test of PPAR Agonist Activity
(§2) Nuclear Hormone Receptor (NHR) Test
(§3) PathHunter's NHR protein interaction and nuclear transfer test are used to detect the activation ability of nuclear hormone receptor in a uniform, non-imaging experiment. This technology is called as enzyme fragment complementation […], and is developed by DiscoverX.
(§4) NHR protein test is based on the detection of the protein-protein interaction between a standard length of NHR protein in an activated state and a nuclear fusion protein containing a steroid receptor co-activating peptide (SRCP) region and one or more standard LXXLL acting sequences.
(§5) NHR is labeled on the ProLink™ component of an EFC test system, and the SRCP region and the enzyme receptor component (EA) are fused and expressed in the nucleus. When bound to the ligand, the NHR will transfer to the nucleus and obtain the SRCP region in which a complementary effect is produced, thereby generating an equivalent amount of activated-galactosidase (-Gal), accompanied by the generation of chemical light signals. The benefits associated with this pathway include reduced incubation time of the compound, direct test of an NHR target, use of human NHR sequences with a standard length, and selection of some new classes of compounds based on the disruption of protein-protein interactions.
(§6) The NHR NT test detected the transfer of an NHR between the cytoplasmic and nuclear compartments. The receptor was labeled on the ProLink™ component of the EFC test system, while the EA and nuclear sequence were fused, thereby limiting the expression of EA on the nucleus. Nucleus transfer leaded to the complementary effect with EA, thereby generating one equivalent of activated galactosidase (-Gal), accompanied by the generation of chemical light signals.
(§7) 1. PathHunter NHR cell strains were spread from a frozen stock in accordance with standard operations.
(§8) 2. Cells were seeded onto a 384-well white cell plate of 20 uL/well, and incubated at 37° C. for an appropriate time prior to test. The culture medium contained activated carbon dextran with filtered serum to reduce the level of hormone expression.
(§9) Experiments of Agonist Mode:
(§10) 1. As for the measurement of an agonist activity, it is required to incubate the cells with the compound to induce a response.
2. […]
(§11) 2. The chemiluminescence signals generated by the microplate were to be detected by a PerkinElmer Envision instrument.
(§12) 1. The activity of the compound was analyzed by CIBS data analysis software (ChemInnovation, CA).
(§13) 2. For experiments of agonist mode, the percentage activity is calculated by the following formula: % activity=100%×(the mean RLU of the compound to be tested−the mean background RLU of the medium)/(the mean of maximum control of the ligand−the mean background RLU of the medium)

PPAR Gamma = target: T2, PPAR Gamma (Homo sapiens, UniProt P37231); experiment: PathHunter NHR protein interaction test, agonist mode, PPAR Gamma; assay type: cell-based; conditions: agonist mode
T2 sequence (P37231 1-505): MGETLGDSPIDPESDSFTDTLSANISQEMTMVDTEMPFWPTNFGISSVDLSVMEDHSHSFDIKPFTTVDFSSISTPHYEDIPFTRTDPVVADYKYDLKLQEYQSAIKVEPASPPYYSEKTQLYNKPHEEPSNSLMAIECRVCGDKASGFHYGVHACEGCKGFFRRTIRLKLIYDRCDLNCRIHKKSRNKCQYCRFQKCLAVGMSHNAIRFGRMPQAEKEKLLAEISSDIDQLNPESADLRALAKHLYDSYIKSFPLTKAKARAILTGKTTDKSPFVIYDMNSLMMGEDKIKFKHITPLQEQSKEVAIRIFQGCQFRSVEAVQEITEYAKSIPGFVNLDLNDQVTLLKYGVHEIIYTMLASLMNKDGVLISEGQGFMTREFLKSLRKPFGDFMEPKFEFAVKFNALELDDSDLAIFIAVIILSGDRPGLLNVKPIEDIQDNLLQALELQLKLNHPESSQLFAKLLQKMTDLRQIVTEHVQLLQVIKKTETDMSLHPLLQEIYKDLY
Excerpt: as §1, §2, §3, §4, §5
The NHR NT test detected the transfer of an NHR between the cytoplasmic and nuclear compartments. […]
as §11, §12, §13

PPAR Delta = target: T3, PPAR Delta (Homo sapiens, UniProt Q03181); experiment: PathHunter NHR protein interaction test, agonist mode, PPAR Delta; assay type: cell-based
T3 sequence (Q03181 1-441): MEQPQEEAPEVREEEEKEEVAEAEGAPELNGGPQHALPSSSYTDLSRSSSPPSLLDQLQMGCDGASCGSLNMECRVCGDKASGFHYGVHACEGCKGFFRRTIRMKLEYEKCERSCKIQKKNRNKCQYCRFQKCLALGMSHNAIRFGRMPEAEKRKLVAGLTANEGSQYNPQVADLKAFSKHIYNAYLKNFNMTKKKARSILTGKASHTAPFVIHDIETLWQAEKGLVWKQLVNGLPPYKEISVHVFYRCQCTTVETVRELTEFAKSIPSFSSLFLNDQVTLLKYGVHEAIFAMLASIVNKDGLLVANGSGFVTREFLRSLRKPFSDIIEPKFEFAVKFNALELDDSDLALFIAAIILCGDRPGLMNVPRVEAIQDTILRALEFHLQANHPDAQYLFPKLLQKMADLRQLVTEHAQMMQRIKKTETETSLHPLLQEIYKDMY
Excerpt: as §1, §2, §3, §4, §5, §6, §7, §8, §9, §10
2. […]
as §11, §12, §13

[5] = 40° C./75% humidity, open, Day 10, HPLC
[6] = 40° C./75% humidity, open, Day 30, HPLC
[7] = 40° C./75% humidity, open, Day 60, HPLC
[8] = 40° C./75% humidity, open, Day 90, HPLC

Appearance ([2]; 1,4-dioxane, about 20 mg in 0.3-0.4 mL, cell wraps: ...Solid precipitated after evaporation of solvent): Suspension (2 days)/Solid
Appearance ([2]; Acetone, about 20 mg in 0.3-0.4 mL, cell wraps: ...Solid precipitated after evaporation of solvent): Suspension (2 days)/Solid
Appearance ([2]; Acetone:water = 3:1, about 20 mg in 0.3-0.4 mL, cell wraps: ...Solid precipitated after evaporation of solvent): Suspension (2 days)/Solid
Appearance ([2]; Acetonitrile, about 20 mg in 0.3-0.4 mL, cell wraps: ...Solid precipitated after evaporation of solvent): Suspension (2 days)/Solid
Appearance ([2]; Acetonitrile:water = 3:1, about 20 mg in 0.3-0.4 mL, cell wraps: ...Solid precipitated after evaporation of solvent): Suspension (2 days)/Solid
Appearance ([2]; Ethanol, about 20 mg in 0.3-0.4 mL, cell wraps: ...Solid precipitated after evaporation of solvent): Suspension (2 days)/Solid
Appearance ([2]; Ethanol:water = 3:1, about 20 mg in 0.3-0.4 mL, cell wraps: ...Solid precipitated after evaporation of solvent): Suspension (2 days)/Solid
Appearance ([2]; Ethyl acetate, about 20 mg in 0.3-0.4 mL, cell wraps: ...Solid precipitated after evaporation of solvent): Suspension (2 days)/Solid
Appearance ([2]; Methanol, about 20 mg in 0.3-0.4 mL, cell wraps: ...after evaporation of solvent): Solid precipitated after
Results (form by XRPD) ([2]; Methanol, stirred at 40° C. 2 days): Amorphous
Appearance ([2]; Methanol:water = 3:1, about 20 mg in 0.3-0.4 mL, cell wraps: ...after evaporation of solvent): Solid precipitated after
Results (form by XRPD) ([2]; Methanol:water = 3:1, stirred at 40° C. 2 days): Amorphous
Appearance ([2]; Tetrafuran, about 20 mg in 0.3-0.4 mL, cell wraps: ...Solid precipitated after evaporation of solvent): Suspension (2 days)/Solid
stability of form in various solvents ([2]; summary of Table 4): does not exhibit any change of form
Appearance ([3]; 25° C./92.5% Relative Humidity (Open), Day 10): Off-white powder
Form ([3]; 25° C./92.5% Relative Humidity (Open), Day 10, XRPD): Amorphous
Appearance ([4]; 40° C./75% humidity, open, Day 10): Off-white powder
Purity (%) [4, 5]: 97.49%
Total Impurity (%) [4, 5]: 2.51%
Appearance ([4]; 40° C./75% humidity, open, Day 30): Off-white powder
Purity (%) [4, 6]: 97.31%
Total Impurity (%) [4, 6]: 2.69%
Appearance ([4]; 40° C./75% humidity, open, Day 60): Off-white powder
Purity (%) [4, 7]: 97.59%
Total Impurity (%) [4, 7]: 2.41%
Appearance ([4]; 40° C./75% humidity, open, Day 90): Off-white powder
Purity (%) [4, 8]: 97.28%
Total Impurity (%) [4, 8]: 2.72%
Appearance ([4]; Day 0 (initial)): Off-white powder
Purity (%) ([4]; Day 0 (initial), HPLC): 97.37%
Total Impurity (%) ([4]; Day 0 (initial), HPLC): 2.63%
Compound: CSc1ccc(C(=O)[C@@H]2CN(C(=O)Oc3ccccc3)C[C@H]2Cc2cc(C)c(OC(C)(C)C(=O)O)c(C)c2)cc1
effect on cytokines of PPAR-associated pathways [1]: obvious inhibitory effect
stability at high humidity ([3]; 25° C./92.5% RH, Day 10): does not exhibit form and appearance changes
stability at high temperature and humidity ([4]; 40° C./75% humidity, up to Day 90): does not exhibit a significant change in content and impurities

PPAR Alpha Maximum stimulus-response value (PPAR Alpha; reference agonist, set as 100%): 100%
Compound: CC(C)(Sc1ccc(CCN(CCCCC2CCCCC2)C(=O)NC2CCCCC2)cc1)C(=O)O [GW7647, reference compound]

EC50 (PPAR Gamma): > 250 nM
EC50 (PPAR Alpha; agonist mode): > 250 nM
Compound: CSc1ccc(C(=O)/C=C/c2cc(C)c(OC(C)(C)C(=O)O)c(C)c2)cc1 [GFT-505, Elafibranor, reference compound]

Compound: CCCc1c(OCCCOc2ccc(OCC(=O)O)cc2)ccc(C(C)=O)c1O [L-165,041, reference compound]
EC50 (PPAR Delta; agonist mode): < 100 nM
PPAR Delta Maximum stimulus-response value (PPAR Delta; reference agonist, set as 100%): 100%
